Experimental data taken from US9770026B2, “Substituted pyrimidine compound and uses thereof” (Shenyang Sinochem Agrochemicals R&D Co., Ltd., priority 2012, dated 2017).

Columns and labels:
rice blast = experiment: microbe, parasite or virus in culture; format: cell-based; conditions: Pyricularia oryzae
Diamond back moth = experiment: insecticidal activity against diamond back moth, airbrush spray; format: in vivo
How it was run: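 Airbrush leaf-disc spray test: both faces of 2 cm cabbage discs received 0.5 ml of test solution at 0.7 kg/cm^2. Solutions were made in acetone:methanol (1:1) and brought to concentration with 0.1% Tween 80 in water. Ten second-instar larvae per disc, triplicates, were held at 25° C and 60˜70% R.H., with mortality recorded at 72 hrs.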

armyworm = experiment: bioactivity test against armyworm, airbrush spray; format: in vivo; conditions: 72 h, read-out: Insecticidal activity against armyworm (%)
[1] = tested on: Green peach aphids (Myzus Persicae Sulzer); experiment: bioactivity test against green peach aphid, airbrush foliar spray; format: in vivo
How it was run: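 Death rate was scored at 48 hrs, held at 25±1 C and 60±5% RH, following airbrush foliar spray (0.5 mL, 10 psi) onto cabbage leaf discs bearing about 15-30 aphids. Test solutions: compound dissolved in 1:1 acetone:methanol, brought to concentration with 0.1% tween 80 water.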

corn rust = experiment: protectant activity in vivo against corn rust; conditions: for pest or weed control at 0.4 µg/mL: read-out: control effect against corn rust (%), 0.4 mg/L; for pest or weed control at 0.4 µg/mL / pest or weed control at 1.6 µg/mL / pest or weed control at 6.25 µg/mL / pest or weed control at 25 µg/mL / pest or weed control at 100 µg/mL / pest or weed control at 400 µg/mL: protectant activity; for pest or weed control at 1.6 µg/mL: read-out: control effect against corn rust (%), 1.6 mg/L; for pest or weed control at 6.25 µg/mL: read-out: control effect against corn rust (%), 6.25 mg/L; for pest or weed control at 25 µg/mL: read-out: control effect against corn rust (%), 25 mg/L; for pest or weed control at 100 µg/mL: read-out: control effect against corn rust (%), 100 mg/L; for pest or weed control at 400 µg/mL: read-out: control effect against corn rust (%), 400 mg/L
carmine spider mite = experiment: bioactivity test against carmine spider mite, airbrush spray; format: in vivo; conditions: for control against carmine spider mite: mortality after 72 hrs
How it was run: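 Broadbean seedlings infested with adult mites were sprayed with compound (acetone/methanol stock diluted in 0.1% Tween 80 water) by airbrush at 0.7 kg/cm^2, 0.5 ml. Three replicates were run. Mortality was scored after 72 hrs.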

wheat powdery mildew = experiment: protectant activity in vivo against wheat powdery mildew
cucumber downy mildew = experiment: protectant activity in vivo against cucumber downy mildew

CCc1ncnc(NC(C)c2ccc(Oc3ccc(C(F)(F)F)cn3)cc2)c1Cl (stereo not shown) [CK40, reference compound]
inhibition at 25 ppm (rice blast; read-out: inhibition rate against rice blast, 25 ppm, in vitro): < 50%
pest or weed control at 10 µg/mL (Diamond back moth; 72 h, 10 mg/L): 13%
pest or weed control at 100 µg/mL (Diamond back moth; 72 h, 100 mg/L): 29%
pest or weed control at 600 µg/mL (Diamond back moth; 72 h, 600 mg/L): 100%
pest or weed control at 10 µg/mL (armyworm; 10 mg/L): 0%
pest or weed control at 100 µg/mL (armyworm; 100 mg/L): 6%
pest or weed control at 600 µg/mL (armyworm; 600 mg/L): 43%
pest or weed control at 2.5 µg/mL ([1]; Myzus persicae, foliar, 48 h, 2.5 mg/L, contrastive test, read-out: Insecticidal activity against peach aphid (%)): 0%
pest or weed control at 5 µg/mL ([1]; Myzus persicae, foliar, 48 h, 5 mg/L, contrastive test, read-out: Insecticidal activity against peach aphid (%)): 27%
pest or weed control at 10 µg/mL ([1]; Myzus persicae, foliar, 48 h, 10 mg/L, contrastive test, read-out: Insecticidal activity against peach aphid (%)): 72%
pest or weed control at 100 µg/mL ([1]; Myzus persicae, foliar, 48 h, 100 mg/L, contrastive test, read-out: Insecticidal activity against peach aphid (%)): 100%
pest or weed control at 600 µg/mL ([1]; Myzus persicae, foliar, 48 h, 600 mg/L, contrastive test, read-out: Insecticidal activity against peach aphid (%)): 100%
pest or weed control at 0.4 µg/mL (corn rust; Zea mays, 168 h): 0%
pest or weed control at 1.6 µg/mL (corn rust; Zea mays, 168 h): 30%
pest or weed control at 6.25 µg/mL (corn rust; Zea mays, 168 h): 70%
pest or weed control at 25 µg/mL (corn rust; Zea mays, 168 h): 90%
pest or weed control at 100 µg/mL (corn rust; Zea mays, 168 h): 100%
pest or weed control at 400 µg/mL (corn rust; Zea mays, 168 h): 100%

Cc1ncnc(NCCc2ccc(Oc3ccc(C(F)(F)F)cn3)cc2)c1Cl [Compound I-22]
inhibition at 8.3 ppm (rice blast; read-out: inhibition rate against rice blast, 8.3 ppm, in vitro): 80 to 99%
control (test results against diamond back moth) (Diamond back moth; 600 ppm, mortality after 72 hrs): 100%
Insecticidal activity against peach aphid (%) ([1]; 1.25 mg/L, contrastive test): 100%
Insecticidal activity against peach aphid (%) ([1]; 2.5 mg/L, contrastive test): 100%
Insecticidal activity against peach aphid (%) ([1]; 5 mg/L, contrastive test): 100%
Insecticidal activity against peach aphid (%) ([1]; 10 mg/L, contrastive test): 100%
Insecticidal activity against peach aphid (%) ([1]; 100 mg/L, contrastive test): 100%
Insecticidal activity against peach aphid (%) ([1]; 600 mg/L, contrastive test): 100%
control (test results against green peach aphid) ([1]; 10 ppm, death rate after 48 hrs): 100%
pest or weed control at 100 ppm ([1]; Myzus persicae, foliar, 48 h, 100 ppm, death rate after 48 hrs): 100%
pest or weed control at 600 ppm ([1]; Myzus persicae, foliar, 48 h, 600 ppm, death rate after 48 hrs): 100%
Insecticidal activity against carmine spider mite (% ) (carmine spider mite; 5 mg/L): 59%
Insecticidal activity against carmine spider mite (% ) (carmine spider mite; 10 mg/L, contrastive test): 74%
Insecticidal activity against carmine spider mite (% ) (carmine spider mite; 100 mg/L, contrastive test): 100%
Insecticidal activity against carmine spider mite (% ) (carmine spider mite; 600 mg/L, contrastive test): 100%
control against carmine spider mite (carmine spider mite; 100 ppm): 100%
control against carmine spider mite (carmine spider mite; 600 ppm): 100%
protectant activity against corn rust in vivo (corn rust; 6.25 ppm): 100%
protectant activity against corn rust in vivo (corn rust; 100 ppm): 100%
pest or weed control at 0.4 µg/mL (corn rust; Zea mays, 168 h): 20%
pest or weed control at 1.6 µg/mL (corn rust; Zea mays, 168 h): 50%
pest or weed control at 6.25 µg/mL (corn rust; Zea mays, 168 h): 100%
pest or weed control at 25 µg/mL (corn rust; Zea mays, 168 h): 100%
pest or weed control at 100 µg/mL (corn rust; Zea mays, 168 h): 100%
pest or weed control at 400 µg/mL (corn rust; Zea mays, 168 h): 100%
pest or weed control at 25 ppm (corn rust; Zea mays, 168 h, read-out: protectant activity against corn rust in vivo, 25 ppm): 100%
pest or weed control at 400 ppm (corn rust; Zea mays, 168 h, read-out: protectant activity against corn rust in vivo, 400 ppm): 100%
protectant activity against wheat powdery mildew in vivo (wheat powdery mildew; 6.25 ppm): 100%
protectant activity against wheat powdery mildew in vivo (wheat powdery mildew; 100 ppm): 100%
pest or weed control at 1.6 µg/mL (wheat powdery mildew; Triticum aestivum, 168 h, read-out: control effect against wheat powdery mildew (%), 1.6 mg/L, protectant activity): 15%
pest or weed control at 6.25 µg/mL (wheat powdery mildew; Triticum aestivum, 168 h, read-out: control effect against wheat powdery mildew (%), 6.25 mg/L, protectant activity): 100%
pest or weed control at 25 µg/mL (wheat powdery mildew; Triticum aestivum, 168 h, read-out: control effect against wheat powdery mildew (%), 25 mg/L, protectant activity): 100%
pest or weed control at 100 µg/mL (wheat powdery mildew; Triticum aestivum, 168 h, read-out: control effect against wheat powdery mildew (%), 100 mg/L, protectant activity): 100%
pest or weed control at 400 µg/mL (wheat powdery mildew; Triticum aestivum, 168 h, read-out: control effect against wheat powdery mildew (%), 400 mg/L, protectant activity): 100%
pest or weed control at 25 ppm (wheat powdery mildew; Triticum aestivum, 168 h, read-out: protectant activity against wheat powdery mildew in vivo, 25 ppm): 100%
pest or weed control at 400 ppm (wheat powdery mildew; Triticum aestivum, 168 h, read-out: protectant activity against wheat powdery mildew in vivo, 400 ppm): 100%
protectant activity against cucumber downy mildew in vivo (cucumber downy mildew; 100 ppm): 100%
pest or weed control at 3.125 µg/mL (cucumber downy mildew; Cucumis sativus, 168 h, read-out: control effect against cucumber downy mildew (%), 3.125 mg/L, protectant activity): 85%
pest or weed control at 6.25 µg/mL (cucumber downy mildew; Cucumis sativus, 168 h, read-out: control effect against cucumber downy mildew (%), 6.25 mg/L, protectant activity): 100%
pest or weed control at 12.5 µg/mL (cucumber downy mildew; Cucumis sativus, 168 h, read-out: control effect against cucumber downy mildew (%), 12.5 mg/L, protectant activity): 100%
pest or weed control at 25 µg/mL (cucumber downy mildew; Cucumis sativus, 168 h, read-out: control effect against cucumber downy mildew (%), 25 mg/L, protectant activity): 100%
pest or weed control at 50 µg/mL (cucumber downy mildew; Cucumis sativus, 168 h, read-out: control effect against cucumber downy mildew (%), 50 mg/L, protectant activity): 100%
pest or weed control at 100 µg/mL (cucumber downy mildew; Cucumis sativus, 168 h, read-out: control effect against cucumber downy mildew (%), 100 mg/L, protectant activity): 100%
pest or weed control at 400 µg/mL (cucumber downy mildew; Cucumis sativus, 168 h, read-out: control effect against cucumber downy mildew (%), 400 mg/L, protectant activity): 100%
pest or weed control at 6.25 ppm (cucumber downy mildew; Cucumis sativus, 168 h, read-out: protectant activity against cucumber downy mildew in vivo, 6.25 ppm): 100%
pest or weed control at 12.5 ppm (cucumber downy mildew; Cucumis sativus, 168 h, read-out: protectant activity against cucumber downy mildew in vivo, 12.5 ppm): 100%
pest or weed control at 25 ppm (cucumber downy mildew; Cucumis sativus, 168 h, read-out: protectant activity against cucumber downy mildew in vivo, 25 ppm): 100%
pest or weed control at 50 ppm (cucumber downy mildew; Cucumis sativus, 168 h, read-out: protectant activity against cucumber downy mildew in vivo, 50 ppm): 100%
pest or weed control at 400 ppm (cucumber downy mildew; Cucumis sativus, 168 h, read-out: protectant activity against cucumber downy mildew in vivo, 400 ppm): 100%
